≈ marks a conversion by molar mass, not a printed value. Where “and” joins values, the source holds several entries; their conditions need not be identical. Identical values can stand only once. Like-named read-outs stand apart in the source and are kept apart here.
Tests used:
[1] = PK study of Form A and Form B in Rat; type: in vivo; conditions: rat, in vivo; for AUC(0-t): read-out: Mean AUC0~48; for half-life: read-out: Mean t1/2 (converted); for Tmax: read-out: Median Tmax
EGFR 19Del = target: T1, EGFR 19Del (Homo sapiens, UniProt P00533, DEL746-750); assay: In vitro cell based assay, PD IC50, PC-9
T1 construct: Form A and B in vitro cell based assay; endogenous in cells; host or cells: PC-9

EGFR L858R/T790M = target: T2, EGFR L858R/T790M (Homo sapiens, UniProt P00533, L858R/T790M); assay: In vitro cell based assay, PD IC50, NCI-H1975
T2 construct: Form A and B in vitro cell based assay; endogenous in cells; host or cells: NCI-H1975
T2 sequence (P00533 25-1210 T790M/L858R): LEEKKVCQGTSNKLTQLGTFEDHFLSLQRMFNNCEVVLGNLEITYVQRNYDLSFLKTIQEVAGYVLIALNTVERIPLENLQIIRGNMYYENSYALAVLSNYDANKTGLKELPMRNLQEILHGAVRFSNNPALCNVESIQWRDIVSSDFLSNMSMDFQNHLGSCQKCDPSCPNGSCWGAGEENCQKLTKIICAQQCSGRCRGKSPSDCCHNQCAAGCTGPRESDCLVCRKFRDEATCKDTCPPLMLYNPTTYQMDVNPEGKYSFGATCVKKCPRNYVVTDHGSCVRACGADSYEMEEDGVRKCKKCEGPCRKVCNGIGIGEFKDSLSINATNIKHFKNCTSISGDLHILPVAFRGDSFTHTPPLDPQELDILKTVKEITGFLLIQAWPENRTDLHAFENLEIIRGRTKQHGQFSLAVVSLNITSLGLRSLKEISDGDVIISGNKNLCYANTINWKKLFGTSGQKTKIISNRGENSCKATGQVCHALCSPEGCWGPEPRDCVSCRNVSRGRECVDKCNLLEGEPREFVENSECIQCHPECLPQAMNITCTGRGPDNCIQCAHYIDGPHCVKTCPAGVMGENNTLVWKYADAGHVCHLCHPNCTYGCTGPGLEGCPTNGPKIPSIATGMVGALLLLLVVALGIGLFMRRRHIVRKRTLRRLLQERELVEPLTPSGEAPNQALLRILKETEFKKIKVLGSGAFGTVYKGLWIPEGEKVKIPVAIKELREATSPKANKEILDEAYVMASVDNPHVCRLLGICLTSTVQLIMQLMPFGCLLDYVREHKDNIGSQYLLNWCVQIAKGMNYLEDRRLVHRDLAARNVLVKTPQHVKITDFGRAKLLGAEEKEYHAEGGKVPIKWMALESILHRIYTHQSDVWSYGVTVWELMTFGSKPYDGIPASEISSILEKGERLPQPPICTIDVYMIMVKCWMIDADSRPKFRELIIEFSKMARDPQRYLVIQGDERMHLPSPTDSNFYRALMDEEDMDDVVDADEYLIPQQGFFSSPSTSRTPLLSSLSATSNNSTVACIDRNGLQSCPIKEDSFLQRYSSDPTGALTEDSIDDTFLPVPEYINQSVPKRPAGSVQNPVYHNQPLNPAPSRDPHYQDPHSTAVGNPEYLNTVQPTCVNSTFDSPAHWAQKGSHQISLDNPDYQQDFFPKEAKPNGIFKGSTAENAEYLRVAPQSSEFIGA

3T3_YVMA = assay: In vitro cell based assay, anti-proliferation GI50, 3T3_YVMA; conditions: HER2 A775_G776insYVMA
Ba/F3_NPH = assay: In vitro cell based assay, anti-proliferation GI50, Ba/F3_NPH; conditions: EGFR H773_V774insNPH
A431 = assay: In vitro cell based assay, anti-proliferation GI50, A431; conditions: Homo sapiens, A-431, EGFR Wildtype
[2] = Solubility in organic solvents and water; type: physicochemical; conditions: r.t.
EGFR H773_V774insNPH = target: T3, EGFR H773_V774insNPH (Homo sapiens, UniProt P00533, INS773NPH); assay: In vitro cell based assay, PD IC50, Ba/F3_NPH
T3 construct: expressed in transfected cells; host or cells: Ba/F3 (Ba/F3_NPH)
T3 sequence (P00533 with tags, fused parts or gaps INS773NPH): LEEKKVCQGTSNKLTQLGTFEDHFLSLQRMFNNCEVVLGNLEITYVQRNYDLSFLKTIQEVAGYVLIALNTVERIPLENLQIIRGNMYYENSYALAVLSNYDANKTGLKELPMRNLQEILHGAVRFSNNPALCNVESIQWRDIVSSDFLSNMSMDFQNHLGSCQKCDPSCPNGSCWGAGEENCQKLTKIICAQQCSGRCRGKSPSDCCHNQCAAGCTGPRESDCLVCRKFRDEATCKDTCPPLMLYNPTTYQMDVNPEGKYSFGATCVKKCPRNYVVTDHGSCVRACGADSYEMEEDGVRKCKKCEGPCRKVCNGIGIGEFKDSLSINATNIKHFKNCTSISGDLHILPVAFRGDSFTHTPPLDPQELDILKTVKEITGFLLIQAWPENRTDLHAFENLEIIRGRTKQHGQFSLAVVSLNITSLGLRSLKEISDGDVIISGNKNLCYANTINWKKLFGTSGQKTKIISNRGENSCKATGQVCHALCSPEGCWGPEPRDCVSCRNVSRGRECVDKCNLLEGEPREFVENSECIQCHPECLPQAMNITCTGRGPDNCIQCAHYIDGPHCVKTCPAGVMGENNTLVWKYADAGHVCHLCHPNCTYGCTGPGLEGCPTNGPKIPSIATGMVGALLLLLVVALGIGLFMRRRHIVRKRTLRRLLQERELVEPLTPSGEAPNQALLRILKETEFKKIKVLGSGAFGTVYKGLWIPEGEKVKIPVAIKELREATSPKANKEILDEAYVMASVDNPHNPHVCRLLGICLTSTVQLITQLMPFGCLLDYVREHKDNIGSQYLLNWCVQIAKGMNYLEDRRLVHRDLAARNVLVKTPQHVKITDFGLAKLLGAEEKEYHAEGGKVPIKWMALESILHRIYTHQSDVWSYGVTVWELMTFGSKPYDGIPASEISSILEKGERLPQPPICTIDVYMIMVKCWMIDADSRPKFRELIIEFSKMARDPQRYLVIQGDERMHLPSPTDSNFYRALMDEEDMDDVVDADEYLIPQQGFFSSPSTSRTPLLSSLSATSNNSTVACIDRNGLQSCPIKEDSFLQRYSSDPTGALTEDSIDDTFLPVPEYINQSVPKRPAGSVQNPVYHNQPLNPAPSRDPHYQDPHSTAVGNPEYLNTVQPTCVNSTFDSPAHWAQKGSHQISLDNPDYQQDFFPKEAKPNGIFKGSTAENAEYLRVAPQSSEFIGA

[3] = Water activity study of Form A and Form B (slurry, XRPD); type: physicochemical; conditions: 24~27° C. (before dry)
Procedure: To study the effects of water on the stability of Form A and Form B, slurry experiments in the systems with different water activity were carried out. Form A or Form B was suspended separately in different water activity systems (Table 4). […] Residual solids were filtered and then dried in the vacuum oven at 45° C. for 8-24 hours. Dry solids were characterized by XRPD.

NCI-H1975 = assay: In vitro cell based assay, anti-proliferation GI50, NCI-H1975; conditions: Homo sapiens, NCI-H1975, EGFR L858R/T790M
[4] = Solubility in bio-relevant media; type: physicochemical
PC-9 = assay: In vitro cell based assay, anti-proliferation GI50, PC-9; conditions: Homo sapiens, PC-9, EGFR 19Del
[5] = Dynamic moisture sorption analysis (DVS); type: physicochemical
Procedure: DVS was determined using DVS Advantage-1 or Intrinsic (SMS, UK). The sample was tested at a targeted RH of 10 to 90% full cycle in step mode. The analysis was performed in 10% RH increments. Equilibrium:60 min RH (%) measurement points: First cycle: 0, 10, 20, 30, 40, 50, 60, 70, 80, 90. Second cycle: 90, 80, 70, 60, 50, 40, 30, 20, 10, 0.

[6] = PK study of Form A and Form B in Dog; type: in vivo; conditions: 10 mg/kg
HER2 A775_G776insYVMA = target: T4, HER2 A775_G776insYVMA (Homo sapiens, UniProt P04626, INS775YVMA); assay: In vitro cell based assay, PD IC50, 3T3_YVMA
T4 construct: expressed in transfected cells; host or cells: 3T3 (3T3_YVMA)
T4 sequence (P04626 with tags, fused parts or gaps INS775YVMA): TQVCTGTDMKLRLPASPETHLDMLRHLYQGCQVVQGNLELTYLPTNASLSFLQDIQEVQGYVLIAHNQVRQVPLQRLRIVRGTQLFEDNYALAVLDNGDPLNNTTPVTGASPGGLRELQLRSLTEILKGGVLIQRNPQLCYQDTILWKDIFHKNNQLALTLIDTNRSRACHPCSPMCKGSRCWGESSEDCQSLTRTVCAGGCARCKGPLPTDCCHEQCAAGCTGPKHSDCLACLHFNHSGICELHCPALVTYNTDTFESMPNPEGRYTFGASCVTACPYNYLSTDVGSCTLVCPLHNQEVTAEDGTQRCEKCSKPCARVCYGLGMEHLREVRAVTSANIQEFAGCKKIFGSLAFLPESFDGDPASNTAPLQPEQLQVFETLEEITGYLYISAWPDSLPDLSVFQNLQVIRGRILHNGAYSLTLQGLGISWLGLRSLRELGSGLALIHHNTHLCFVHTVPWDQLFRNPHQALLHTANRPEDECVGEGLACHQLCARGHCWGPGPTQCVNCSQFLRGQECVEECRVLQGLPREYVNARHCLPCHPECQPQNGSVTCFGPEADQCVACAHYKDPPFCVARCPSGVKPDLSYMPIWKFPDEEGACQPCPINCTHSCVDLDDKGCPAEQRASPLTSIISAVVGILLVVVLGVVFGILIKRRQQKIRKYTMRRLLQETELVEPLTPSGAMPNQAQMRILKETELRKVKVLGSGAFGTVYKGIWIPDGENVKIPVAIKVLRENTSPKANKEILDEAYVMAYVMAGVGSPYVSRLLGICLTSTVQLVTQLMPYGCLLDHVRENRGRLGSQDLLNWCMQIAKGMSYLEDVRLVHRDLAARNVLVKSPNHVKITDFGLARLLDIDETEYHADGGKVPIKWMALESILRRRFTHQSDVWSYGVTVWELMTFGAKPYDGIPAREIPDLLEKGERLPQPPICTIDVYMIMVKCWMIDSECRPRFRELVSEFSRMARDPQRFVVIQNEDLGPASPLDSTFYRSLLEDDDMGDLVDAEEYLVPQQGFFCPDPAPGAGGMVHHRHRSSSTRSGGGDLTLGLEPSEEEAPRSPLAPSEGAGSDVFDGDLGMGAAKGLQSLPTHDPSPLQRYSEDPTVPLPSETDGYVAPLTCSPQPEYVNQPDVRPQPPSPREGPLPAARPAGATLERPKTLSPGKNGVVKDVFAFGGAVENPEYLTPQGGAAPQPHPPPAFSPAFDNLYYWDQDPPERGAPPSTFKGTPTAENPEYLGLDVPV

EGFR Wildtype = target: T5, EGFR Wildtype (Homo sapiens, UniProt P00533); assay: In vitro cell based assay, PD IC50, A431
T5 construct: Form A and B in vitro cell based assay; endogenous in cells; host or cells: A431
T5 sequence (P00533 25-1210): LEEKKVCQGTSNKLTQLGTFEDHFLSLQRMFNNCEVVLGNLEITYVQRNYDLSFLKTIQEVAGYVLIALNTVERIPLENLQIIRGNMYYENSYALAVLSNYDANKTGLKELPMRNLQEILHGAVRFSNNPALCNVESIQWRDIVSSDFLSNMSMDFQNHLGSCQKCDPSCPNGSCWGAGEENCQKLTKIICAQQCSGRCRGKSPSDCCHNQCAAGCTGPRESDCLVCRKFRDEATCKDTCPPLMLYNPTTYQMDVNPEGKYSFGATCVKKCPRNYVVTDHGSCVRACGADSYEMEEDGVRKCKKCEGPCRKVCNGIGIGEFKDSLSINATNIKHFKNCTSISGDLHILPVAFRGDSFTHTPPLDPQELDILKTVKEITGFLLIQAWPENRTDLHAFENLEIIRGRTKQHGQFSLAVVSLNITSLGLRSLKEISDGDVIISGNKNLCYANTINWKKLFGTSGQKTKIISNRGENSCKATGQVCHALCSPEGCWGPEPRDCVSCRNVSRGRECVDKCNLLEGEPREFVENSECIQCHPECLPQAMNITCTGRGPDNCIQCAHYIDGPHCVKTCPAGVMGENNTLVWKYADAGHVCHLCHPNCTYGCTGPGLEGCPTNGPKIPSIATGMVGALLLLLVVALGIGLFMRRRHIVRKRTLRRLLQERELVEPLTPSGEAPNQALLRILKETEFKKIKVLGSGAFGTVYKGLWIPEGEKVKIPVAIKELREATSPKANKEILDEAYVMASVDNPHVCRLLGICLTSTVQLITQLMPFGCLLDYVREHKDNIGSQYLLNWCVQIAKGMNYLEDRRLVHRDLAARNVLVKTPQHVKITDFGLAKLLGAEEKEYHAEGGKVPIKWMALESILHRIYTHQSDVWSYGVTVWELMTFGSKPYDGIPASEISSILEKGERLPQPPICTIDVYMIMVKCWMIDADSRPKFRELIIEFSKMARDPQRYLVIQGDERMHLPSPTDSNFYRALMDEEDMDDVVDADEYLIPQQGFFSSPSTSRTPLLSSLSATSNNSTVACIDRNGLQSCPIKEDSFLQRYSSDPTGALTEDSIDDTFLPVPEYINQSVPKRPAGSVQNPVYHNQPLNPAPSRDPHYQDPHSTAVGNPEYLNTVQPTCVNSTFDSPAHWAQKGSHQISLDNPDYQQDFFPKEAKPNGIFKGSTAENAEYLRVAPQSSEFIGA

[7] = Form A and Form B inter-conversion study (competitive slurry, XRPD); type: physicochemical
Procedure: Competitive slurry experiments were conducted to evaluate the relative stability of Form A and Form B. Inter-conversion study was performed at room temperature and 50° C. using single and binary solvents listed in the Table 1 below. About 80 mg (100 mg for 50° C.) of Form A and Form B (1:1, w/w) was weighed into sample vials (8 mL) and then 3 mL (2 mL for 50° C.) of solvents were added to each vial. The obtained suspensions were kept stirring for 7 days at room temperature and 50° C., then filtered at specified time. The wet and dried solids were analyzed by XRPD (dried in vacuum oven at 45° C.).
Form B was dominant in tested solvent systems with water activity below 0.15 at room temperature (24˜27° C.). […] Pure Form A and Form B were stable during drying process (50° C., vacuum) for at least 2 days.

Cmax ([1]; 25 mg/kg): 199 ng/mL | AUC(0-t) ([1]; 25 mg/kg): 2130 ng·h/mL | half-life ([1]; 25 mg/kg): 4.4 h | Tmax ([1]; 25 mg/kg): 4 h | Cmax ([1]; 75 mg/kg): 506 ng/mL | AUC(0-t) ([1]; 75 mg/kg): 6870 ng·h/mL | half-life ([1]; 75 mg/kg): 6 h | Tmax ([1]; 75 mg/kg): 4 h | IC50 (EGFR 19Del): 2.13 nM | IC50 (EGFR L858R/T790M): 2.1 nM | GI50 (Ba/F3_NPH): 58.2 nM | GI50 (A431): 42.2 nM | Solubility ([2]; Acetonitrile): S < 2.14 mg/ml | Solubility ([2]; EtOH, organic solvent or mixture, EtOH, read-out: Solubility): 13400 to 17800 µg/mL (≈ 22.9 to 30.5 mM) | Solubility ([2]; Ethyl acetate): S < 2.16 mg/ml | Solubility ([2]; MTBE, organic solvent or mixture, MTBE, read-out: Solubility): < 1820 µg/mL | Solubility ([2]; MeOH, organic solvent or mixture, MeOH, read-out: Solubility): 24800 to 49500 µg/mL (≈ 42.4 to 84.7 mM) | Solubility ([2]; THF, organic solvent or mixture, THF, read-out: Solubility): 17200 to 25800 µg/mL (≈ 29.4 to 44.1 mM) | Solubility ([2]; acetone, organic solvent or mixture, Acetone, read-out: Solubility): 5120 to 5690 µg/mL (≈ 8.77 to 9.74 mM) | Solubility ([2]; isopropanol, organic solvent or mixture, Isopropanol, read-out: Solubility): 4450 to 4940 µg/mL (≈ 7.62 to 8.46 mM) | Solubility ([2]; water, read-out: Solubility): < 2040 µg/mL | IC50 (EGFR H773_V774insNPH): 32.4 nM | XRPD results of slurry in different water activity solvent ([3]; 0% water/acetone, water activity 0, 1 d): Form A | XRPD results of slurry in different water activity solvent ([3]; 0% water/acetone, water activity 0, 3 d): Form A | XRPD results of slurry in different water activity solvent ([3]; 0% water/acetone, water activity 0, 7 d): Form A + B | XRPD results of slurry in different water activity solvent ([3]; 3% water/acetone, water activity 0.312, 3 d): Form A | XRPD results of slurry in different water activity solvent ([3]; 3% water/acetone, water activity 0.312, 7 d): Form A + B | XRPD results of slurry in different water activity solvent ([3]; 30% water/acetone, water activity 0.747, 1 d): Form A | XRPD results of slurry in different water activity solvent ([3]; 30% water/acetone, water activity 0.747, 3 d): Form A | XRPD results of slurry in different water activity solvent ([3]; 30% water/acetone, water activity 0.747, 7 d): Form A + B | XRPD results of slurry in different water activity solvent ([3]; water, 7 d): Form A | GI50 (NCI-H1975): 2.22 nM | Solubility ([4]; FaSSIF, 0.5 h): 170 µg/mL (≈ 0.291 mM) | Solubility ([4]; FaSSIF, 2 h): 190 µg/mL (≈ 0.325 mM) | Solubility ([4]; FaSSIF, 24 h): 260 µg/mL (≈ 0.445 mM) | Solubility ([4]; FeSSIF, 0.5 h): 4600 µg/mL (≈ 7.88 mM) | Solubility ([4]; FeSSIF, 2 h): 6880 µg/mL (≈ 11.8 mM) | Solubility ([4]; FeSSIF, 24 h): 11640 µg/mL (≈ 19.9 mM) | Solubility ([4]; SGF, 0.5 h): 23120 µg/mL (≈ 39.6 mM) | Solubility ([4]; SGF, 2 h): 24350 µg/mL (≈ 41.7 mM) | Solubility ([4]; SGF, 24 h): 24410 µg/mL (≈ 41.8 mM) | Solubility ([4]; SIF, 0.5 h): 29 µg/mL (≈ 0.0496 mM) | Solubility ([4]; SIF, 2 h): 40 µg/mL (≈ 0.0685 mM) | Solubility ([4]; SIF, 24 h): 40 µg/mL (≈ 0.0685 mM) | GI50 (PC-9): 4.76 nM | DVS (ΔW %, 80% RH) [5]: 0.63% | IC50 (HER2 A775_G776insYVMA): 3.84 nM | IC50 (EGFR Wildtype): 43.1 nM | Stability of pure form during drying process ([7]; 50° C., vacuum, at least 2 days): stable | Form change during the drying process ([7]; mixture of Form A and Form B): converted into Form B
SMILES: C=CC(=O)Nc1cc(Nc2nccc(Nc3cc(Cl)c(F)cc3C(C)(C)O)n2)c(OC)cc1N1CC[C@@H](N(C)C)C1 [Form A, (R)-N-(5-((4-((5-chloro-4-fluoro-2-(2-hydroxypropan-2-yl)phenyl)amino)pyrimidin-2-yl)amino)-2-(3-(dimethylamino)pyrrolidin-1-yl)-4-methoxyphenyl)acrylamide]
GI50 (3T3_YVMA): 44.3 nM | AUC0-24 h ([6]; Female (individual animals)): 2.30 hr*μM/(mg/kg) and 1.80 hr*μM/(mg/kg) | AUC0-24 h ([6]; Male (individual animals)): 3.47 hr*μM/(mg/kg) and 5.47 hr*μM/(mg/kg)

From patent US20250197377A1, “NOVEL PHARMACEUTICAL SALTS AND POLYMORPHIC FORMS OF AN ERBB AND BTK INHIBITOR” (DIZAL (JIANGSU) PHARMACEUTICAL CO., LTD., priority 2021, published 2025)
